Data set [1] relates to M. abscessus. In words: MIC determination, CLSI M24-A. The settings on record: Mycobacteroides abscessus; for MIC90: range over compounds and species, read-out: MIC90 (concentration which inhibits 90% of strains); for MIC: CLSI M24-A. In kind it is cell-based.
In data set [2] the test system is M. abscessus. In words: Bactericidal activity. It counts as cell-based.
A further data set concerns M. tuberculosis. In words: Bactericidal activity. In kind it is cell-based.
Data set [3] deals with azithromycin-, doxycycline, and sulfamethoxazole-resistant M. abscessus. As to the kind of experiment: MIC against drug-resistant strains. It counts as cell-based. The following applies: for MIC: Mycobacteroides abscessus, clinically relevant resistant strains, M. abscessus, range over compounds and strains; for activity against resistant strains: azithromycin-, doxycycline, and sulfamethoxazole-resistant M. abscessus.

A further data set has as its system M. chelonae. In words: MIC determination, CLSI M24-A. The following applies: Mycobacteroides chelonae, range over compounds and species, read-out: MIC90 (concentration which inhibits 90% of strains). It counts as cell-based.
In the next data set the test system is M. fortuitum. As to the kind of experiment: MIC determination, CLSI M24-A. The settings on record: Mycolicibacterium fortuitum, range over compounds and species, read-out: MIC90 (concentration which inhibits 90% of strains). It counts as cell-based.
A further data set has as its system Mabs #21. In words: 28-day mouse model of chronic NTM lung infection, efficacy. In kind it is in vivo, M. abscessus. The following applies: GM-CSF KO mice; 25 mg/kg once daily over 4 weeks, intratracheal microspray, 5% corn oil/saline emulsion.
The conditions of data set [4]: mouse, in vivo.
Another data set in a line: physchem. The following applies: oil or lipid.
A further data set has as its system Mabs ATCC19977. In kind it is cell-based. The settings on record: isolated at 4×MIC on 7H11-ADC agar.
The next data set has as its system proton motive force. As to the kind of experiment: Membrane potential and electrochemical pH gradient monitoring. The following applies: Mtb intact cells and inverted membrane vesicles; data not shown. It counts as cell-based.

Values after ≈ are worked out from the molar mass of the structure shown. Where only a bound is given, the exact number is not on record here.

Regarding `CC12CCCC(C(=O)Nc3nc4cc(Cl)cc(Cl)c4s3)(CCC1)C2` [Example 2, N-(5,7-dichloro-1,3-benzothiazol-2-yl)-5-methylbicyclo[3.3.1]nonane-1-carboxamide], the MIC90 in the data set on M. abscessus [1], with M. chelonae and in the data set on M. fortuitum was 0.12 to 1 µg/mL (≈ 0.313 to 2.61 µM) in each case. Besides, the bactericidal effect entry with M. abscessus [2] and with M. tuberculosis was “bactericidal” in each case. Also, the MIC (commonly the least concentration at which growth counts as inhibited) in [3] lay within 0.03 to 4 µg/mL (≈ 0.0783 to 10.4 µM). For the same compound, in data set [3], the “activity against resistant strains” value is recorded as “active”.

In the case of `CC12CCCC(C(=O)Nc3nc4ccc(OC(F)(F)F)cc4s3)(CCC1)C2` [Example 5, 5-methyl-N-[6-(trifluoromethoxy)-1,3-benzothiazol-2-yl]bicyclo[3.3.1]nonane-1-carboxamide], the MIC90 in the data set with M. abscessus [1], in the data set on M. chelonae and in the data set on M. fortuitum was 0.12 to 1 µg/mL (≈ 0.301 to 2.51 µM) in each case. Further, in data set [3], the minimal inhibitory concentration (MIC) lay in the range of 0.03 to 4 µg/mL (≈ 0.0753 to 10 µM). Also, in data set [3], the “activity against resistant strains” value was “active”.

Turning to `CC12CC3CC(C)(C1)CC(C(=O)Nc1nc4ccc(OC(F)(F)F)cc4s1)(C3)C2` [Example 45, 3,5-dimethyl-N-[6-(trifluoromethoxy)-1,3-benzothiazol-2-yl]adamantane-1-carboxamide], the MIC90 in the data set with M. abscessus [1], with M. chelonae and with M. fortuitum was 0.12 to 1 µg/mL (≈ 0.283 to 2.36 µM) throughout. Besides, the MIC in [3] lay within 0.03 to 4 µg/mL (≈ 0.0707 to 9.42 µM). The “activity against resistant strains” value in data set [3] is “active”. The “lung bacterial load (CFU) versus vehicle control” value in the data set on Mabs #21 is reported as “statistically significant CFU reduction”. Besides, the tolerability entry in data set [4] was “very well tolerated”. In addition, in “physchem”, the solubility (in general, the dissolved amount per volume that the medium holds) was not above 250 mg/mL.

For the compound `CC1CC(C(=O)Nc2nc3ccc(OC(F)(F)F)cc3s2)CC(C)(C)C1` (stereo not drawn) [Example 46, 3,3,5-trimethyl-N-[6-(trifluoromethoxy)-1,3-benzothiazol-2-yl]cyclohexane-1-carboxamide], in data set [3], the MIC was 0.03 to 4 µg/mL (≈ 0.0776 to 10.4 µM) and the “activity against resistant strains” value was “active”.

For `CC1CC(C(=O)Nc2nc3ccc(C(F)(F)F)cc3s2)CC(C)(C)C1` (stereo not drawn) [Example 79, 3,3,5-trimethyl-N-[6-(trifluoromethyl)-1,3-benzothiazol-2-yl]cyclohexane-1-carboxamide], the “mutations found in spontaneous-resistant mutants” value in the data set with Mabs ATCC19977 is “non-synonymous mutations in their mmpL3 gene (L551S, I306S, A309P)”.

Regarding `CC1CC(C(=O)Nc2nc3c(F)cc(F)cc3s2)CC(C)(C)C1` (stereo not drawn) [Example 80, N-(4,6-difluoro-1,3-benzothiazol-2-yl)-3,3,5-trimethylcyclohexane-1-carboxamide], in [3], the MIC fell in the range of 0.03 to 4 µg/mL (≈ 0.0886 to 11.8 µM) and the “activity against resistant strains” value was “active”. For the same compound, in the data set on Mabs ATCC19977, the “mutations found in spontaneous-resistant mutants” value is recorded as “non-synonymous mutations in their mmpL3 gene (L551S, I306S, A309P)”. Moreover, the “effect on proton motive force (membrane potential, electrochemical pH gradient)” value in the data set on proton motive force is “did not result from the collapse of the proton motive force”.

In turn, `CC1CC(C(=O)Nc2nc3ccc(F)cc3[nH]2)CC(C)(C)C1` (stereo not drawn) [Example 178, N-(6-fluoro-1H-1,3-benzodiazol-2-yl)-3,3,5-trimethylcyclohexane-1-carboxamide] had an MIC against M. abscessus [1] of 2 to 32 µg/mL (≈ 6.59 to 105 µM).

`CC1CC(C(=O)Nc2nc3c(Cl)cccc3s2)CC(C)(C)C1` (stereo not drawn) [Example 179, N-(4-chloro-1,3-benzothiazol-2-yl)-3,3,5-trimethylcyclohexane-1-carboxamide]: in the data set with M. abscessus [1], the MIC was 2 to 32 µg/mL (≈ 5.94 to 95 µM).

`Cc1cccc2sc(NC(=O)C3CCCC(C)C3)nc12` (stereo not drawn) [Example 180, 3-methyl-N-(4-methyl-1,3-benzothiazol-2-yl)cyclohexane-1-carboxamide] displayed an MIC in the data set on M. abscessus [1] of 2 to 32 µg/mL (≈ 6.93 to 111 µM).

In the case of `COc1ccc2nc(NC(=O)C3CCCC(C)C3)sc2c1` (stereo not drawn) [Example 181, N-(6-methoxy-1,3-benzothiazol-2-yl)-3-methylcyclohexane-1-carboxamide], the MIC in the data set on M. abscessus [1] fell in the range of 2 to 32 µg/mL (≈ 6.57 to 105 µM).

The compound `CC1CCCC(C(=O)Nc2nc3ccccc3s2)C1` (stereo not drawn) [Example 182, N-(1,3-benzothiazol-2-yl)-3-methylcyclohexane-1-carboxamide] gave an MIC against M. abscessus [1] of 2 to 32 µg/mL (≈ 7.29 to 117 µM).

As to `Cc1cccc2sc(NC(=O)C3CC4CCC3C4)nc12` (stereo not drawn) [Example 183, N-(4-methyl-1,3-benzothiazol-2-yl)bicyclo[2.2.1]heptane-2-carboxamide], the MIC in the data set with M. abscessus [1] lay within 2 to 32 µg/mL (≈ 6.98 to 112 µM).

In the data set on M. abscessus [1], `CC12CCCC(C(=O)Nc3nc4cc(Cl)cc(Cl)c4o3)(CCC1)C2` [Example 184, N-(5,7-dichloro-1,3-benzoxazol-2-yl)-5-methylbicyclo[3.3.1]nonane-1-carboxamide] showed an MIC of 2 to 32 µg/mL (≈ 5.45 to 87.1 µM).

In the data set with M. abscessus [1], `CC1(C(=O)Nc2nc3ccc(OC(F)(F)F)cc3s2)CC2CCC1O2` (stereo not drawn) [Example 185, 2-methyl-N-[6-(trifluoromethoxy)-1,3-benzothiazol-2-yl]-7-oxabicyclo[2.2.1]heptane-2-carboxamide] showed an MIC of 2 to 32 µg/mL (≈ 5.37 to 85.9 µM).

`CC1CC(C(=O)Nc2nc3ccc(N(C)C)cc3s2)CC(C)(C)C1` (stereo not drawn) [Example 186, N-[6-(dimethylamino)-1,3-benzothiazol-2-yl]-3,3,5-trimethylcyclohexane-1-carboxamide] gave an MIC with M. abscessus [1] of 2 to 32 µg/mL (≈ 5.79 to 92.6 µM).

For `O=C(Nc1nc2ccccc2o1)C1CCCCCCC1` [Example 187, N-(1,3-benzoxazol-2-yl)cyclooctanecarboxamide], in the data set with M. abscessus [1], the MIC fell in the range of 2 to 32 µg/mL (≈ 7.34 to 117 µM).

`O=C(Nc1nc2ccc(OC(F)(F)F)cc2s1)C1CCCCC1` [Example 188, N-[6-(trifluoromethoxy)-1,3-benzothiazol-2-yl]cyclohexanecarboxamide] displayed an MIC against M. abscessus [1] of 2 to 32 µg/mL (≈ 5.81 to 92.9 µM).

As to `CC1CC(C(=O)Nc2nc3c(F)cc(F)cc3o2)CC(C)(C)C1` (stereo not drawn) [Example 189, N-(4,6-difluoro-1,3-benzoxazol-2-yl)-3,3,5-trimethylcyclohexane-1-carboxamide], the MIC against M. abscessus [1] lay in the range of 2 to 32 µg/mL (≈ 6.2 to 99.3 µM).

In the case of `CC1CC(C(=O)Nc2nc3cc(Br)ccc3s2)CC(C)(C)C1` (stereo not drawn) [Example 190, N-(5-bromo-1,3-benzothiazol-2-yl)-3,3,5-trimethylcyclohexane-1-carboxamide], the MIC against M. abscessus [1] lay within 2 to 32 µg/mL (≈ 5.24 to 83.9 µM).

The compound `COC1CCCC(C(=O)Nc2nc3ccc(Cl)cc3s2)C1` (stereo not drawn) [Example 191, N-(6-chloro-1,3-benzothiazol-2-yl)-3-methoxycyclohexane-1-carboxamide] yielded an MIC against M. abscessus [1] of 2 to 32 µg/mL (≈ 6.16 to 98.5 µM).

For the compound `O=C(Nc1nc2ccc(C(F)(F)F)cc2s1)C1CCC2(CC1)CC2` [Example 192, N-[6-(trifluoromethyl)-1,3-benzothiazol-2-yl]spiro[2.5]octane-6-carboxamide], the minimum inhibitory concentration (MIC) against M. abscessus [1] was in the range of 2 to 32 µg/mL (≈ 5.64 to 90.3 µM).

These data come from patent US11655225B2, “Antimycobacterial heterocyclic amides” (Crestone, Inc., priority 2018, dated 2023).
